From ChEMBL document CHEMBL1129887, “Dicarboxylic acid inhibitors of phospholipase A2” (Bioorg Med Chem Lett, 1997)

Key:
[1] = molecular target: T1, Phospholipase A2, membrane associated (Homo sapiens, UniProt P14555); experiment: Compound was measured for the inhibition of human platelet PLA2 (HP-PLA2)
T1 sequence (P14555 whole entry): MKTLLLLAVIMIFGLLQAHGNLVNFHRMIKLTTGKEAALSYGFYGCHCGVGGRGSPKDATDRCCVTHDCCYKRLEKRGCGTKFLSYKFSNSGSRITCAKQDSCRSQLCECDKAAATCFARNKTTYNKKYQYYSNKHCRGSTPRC

Mus musculus [2] = experiment: (§1) Antiinflammatory activity of compound was measured in the phorbol-ester induced mouse chronic ear edema assay; assay type: functional
Mus musculus [3] = experiment: as §1; assay type: functional; remark: listed apart in the source

| SMILES | IC50 [1] | ED50 (Mus musculus [2]) | ED50 (Mus musculus [3]) |
| --- | --- | --- | --- |
| CCCCCCCCCCOc1ccc(C=C(/C(C)=C/C(=O)O)c2cccc(C(=O)O)c2)cc1 | 7 µM | – | – |
| C/C(=C\C(=O)O)C(=CCCc1ccc2cc3c(cc2c1)C(C)(C)CCC3(C)C)c1cccc(C(=O)O)c1 | 2 µM | 89 ug ear-1 dose-1 | – |
| C/C(=C\C(=O)O)C(=CCCc1ccc(C23C[C@H]4C[C@@H](C2)C[C@@H](C3)C4)c(O)c1)c1cccc(C(=O)O)c1 | 8 µM | – | – |
| C/C(=C\C(=O)O)C(=Cc1ccc2cc(OCCCc3ccccc3)ccc2c1)c1cccc(C(=O)O)c1 | 17 µM | 30 ug ear-1 dose-1 | 90 ug ear-1 dose-1 |
| CCCCCCCCCCOc1ccc2cc(C=C(/C(C)=C/C(=O)O)c3cccc(C(=O)O)c3)ccc2c1 | 14 µM | 31 ug ear-1 dose-1 | – |
| C/C(=C\C(=O)O)C(=Cc1ccc2cc3c(cc2c1)C(C)(C)CCC3(C)C)c1cccc(C(=O)O)c1 | 17 µM | 9.37 ug ear-1 dose-1 | – |
| CC1=C(/C=C/C(C)=C/C=C(/C(C)=C/C(=O)O)c2cccc(C(=O)O)c2)C(C)(C)CCC1 | – | 160 ug ear-1 dose-1 | – |
| C/C(=C\C(N)=O)C(=Cc1ccc2cc3c(cc2c1)C(C)(C)CCC3(C)C)c1cccc(C(N)=O)c1 | 4 µM | 186 ug ear-1 dose-1 | – |
| C/C(=C\C(=O)O)C(=Cc1ccc2cc(OCc3ccccc3)c(OCc3ccccc3)cc2c1)c1cccc(C(=O)O)c1 | – | 208 ug ear-1 dose-1 | – |
